# From patent US11970480
# Where two headings read alike, the source gives them in different places.
# Key:
# [1] = 21-membered ring
# [2] = from 5,5′-(propane-1,3-diylbis(oxy))bis(4-chloro-3-nitrobenzamide) + butane-1,4-diamine; snar bond; 15-membered ring; DIEA; DMSO; 714.0 mM; 120.0 °C; 2 steps
# [3] = amide bond, 2 steps
molecule,measurement,setting,value
CCn1nc(C)c2c1C(=O)Nc1nc3cc(C(N)=O)ccc3n1CC=CCn1c(nc3cc(C(N)=O)ccc31)NC(=O)c1cc(C)nn1CCCCC2,"ring closure, isolated yield","[1]; from C=CCn1c(NC(=O)c2cc(C)nn2CCCCCc2c(C)nn(CC)c2C(=O)Nc2nc3cc(C(N)=O)ccc3n2CC=C)nc2cc(C(N)=O)ccc21, rcm bond, Hoveyda-Grubbs II (20 mol%), DCE, 2.69 mM, 100.0 °C",35%
same,"ring closure, yield of all isomers","from C=CCn1c(NC(=O)c2cc(C)nn2CCCCCc2c(C)nn(CC)c2C(=O)Nc2nc3cc(C(N)=O)ccc3n2CC=C)nc2cc(C(N)=O)ccc21, rcm bond, Hoveyda-Grubbs II, 1,2-dichloroethane, 2.69 mM, 100.0 °C, 4.0 h",35%
CCn1nc(C)c2c1C(=O)Nc1nc3cc(C(N)=O)ccc3n1CCCCn1c(nc3c(CNC(=O)OC(C)(C)C)cccc31)NC(=O)c1cc(C)nn1CCCCC2,"ring closure, isolated yield","[1]; from CCn1nc(C)c(CCCCCn2nc(C)cc2C(=O)Nc2nc3c(CNC(=O)OC(C)(C)C)cccc3n2CCCCn2c(N)nc3cc(C(N)=O)ccc32)c1C(=O)O, amide bond, EDC/HOBt/DIEA/DMAP, DMF, 18.2 mM, 60.0 °C",56%
same,"ring closure, yield of all isomers","from CCn1nc(C)c(CCCCCn2nc(C)cc2C(=O)Nc2nc3c(CNC(=O)OC(C)(C)C)cccc3n2CCCCn2c(N)nc3cc(C(N)=O)ccc32)c1C(=O)O, amide bond, EDC/HOBt, DIEA, cat. DMAP, DMF, 18.2 mM, 60.0 °C, 6.0 h",56%
CCn1nc(C)c2c1C(=O)Nc1nc3cc(C(N)=O)ccc3n1CCCCn1c(nc3c(N(C)Cc4ccc(OC)cc4)cccc31)NC(=O)c1cc(C)nn1CCCCC2,"ring closure, isolated yield","[1]; from CCn1nc(C)c(CCCCCn2nc(C)cc2C(=O)Nc2nc3c(N(C)Cc4ccc(OC)cc4)cccc3n2CCCCn2c(N)nc3cc(C(N)=O)ccc32)c1C(=O)O, amide bond, EDC/HOBt/DMAP, DMF, 23.7 mM, 60.0 °C",20.4%
same,"ring closure, yield of all isomers","from CCn1nc(C)c(CCCCCn2nc(C)cc2C(=O)Nc2nc3c(N(C)Cc4ccc(OC)cc4)cccc3n2CCCCn2c(N)nc3cc(C(N)=O)ccc32)c1C(=O)O, amide bond, EDC/HOBt/DMAP, DMF, 23.7 mM, 60.0 °C, 32.0 h",20.4%
NC(=O)c1cc2c(c([N+](=O)[O-])c1)NCCCCNc1c(cc(C(N)=O)cc1[N+](=O)[O-])OCCCO2,"ring closure, crude yield",[2],90%
2-amino-1-(3-(3-(2-(2-amino-5-carbamoyl-1H-benzo[d]imidazol-1-yl)ethyl)phenyl)-propyl)-1H-benzo[d]imidazole-5-carboxamide + 4-(5-(5-carboxy-3-methyl-1H-pyrazol-1-yl)pentyl)-1-ethyl-3-methyl-1H-pyrazole-5-carboxylic acid,"ring closure, yield after HPLC","[3]; the molecule shown is the open-chain precursor, 25-membered ring, HATU, NMP, 40.3 mM, 40.0 °C",0.6%
"8-Ethyl-10,13,13,18-tetramethyl-7,20-dioxo-6,7,8,11,12,13,14,15,20,21,28,29,30,31-tetradecahydrobenzo[4,5]imidazo[1,2-a]benzo[4,5]imidazo[2,1-p]dipyrazolo[5,1-e:4′,3′-1][1,3,6,15,17]pentaazacyclohenicosine-3,24-dicarboxamide","ring closure, yield after HPLC","[3]; 21-membered ring, HATU, NMP, 51.0 mM, 40.0 °C",3.4%
"8-Ethyl-10,17-dimethyl-7,19-dioxo-7,8,11,12,13,14,19,20,27,28,29,30-dodecahydro-6H-benzo[4,5]imidazo[1,2-a]benzo[4,5]imidazo[2,1-o]dipyrazolo[5,1-e:4′,3′-k][1,3,6,14,16]pentaazacycloicosine-3,23-dicarboxamide","ring closure, yield after HPLC","[3]; 20-membered ring, HATU/DIEA, NMP, 61.5 mM, 120.0 °C",2%
"8-Ethyl-10,18-dimethyl-7,20-dioxo-6,7,8,11,14,15,20,21,28,29,30,31-dodecahydrobenzo[4,5]imidazo[1,2-a]benzo[4,5]imidazo[2,1-p]dipyrazolo[5,1-e:4′,3′-1][1,3,6,15,17]pentaazacyclohenicosine-3,24-dicarboxamide","ring closure, yield after HPLC","[3]; 21-membered ring, HATU/DIEA, NMP, 92.4 mM, 80.0 °C",1.7%
"8-ethyl-10,18,30-trimethyl-7,20-dioxo-7,8,11,12,13,14,15,20,21,28,29,30,31,32-tetradecahydro-benzo[4,5]imidazo[2,1-b]benzo[4,5]imidazo[1,2-l]dipyrazolo[5,1-m:4′,3′-t][1,3,6,9,11,14]hexaazacyclodocosine-3,24-dicarboxamide","ring closure, yield after HPLC","[3]; 22-membered ring, HATU/DIEA, NMP, 68.9 mM, 140.0 °C",4.56%
"(1r,39r)-14-ethyl-16,25-dimethyl-12,28-dioxo-2,9,11,14,15,23,24,29,31,38-decaazaoctacyclo[37.2.2.0^2,^1^0.0^3,^8.0^13,^1^7.0^23,^2^7.0^3^0,^3^8.0^32,^3^7]tritetraconta-3,5,7,9,13(17),15,24,26,30,32,34,36-dodecaene-6,34-Dicarboxamide","ring closure, isolated yield","[1]; amide bond, HATU/DIEA, DMF, 116.0 mM, 80.0 °C, 2 steps",0.3%
"(E)-1,26-Dibromo-8-ethyl-10,18-dimethyl-7,20-dioxo-6,7,8,11,12,13,14,15,20,21,28,31-dodecahydrobenzo[4,5]imidazo[1,2-a]benzo[4,5]imidazo[2,1-p]dipyrazolo[5,1-e:4′,3′-1][1,3,6,15,17]pentaazacyclohenicosine-3,24-dicarboxamide","ring closure, isolated yield","[1]; amide bond, HATU/DIEA, DMF, 59.3 mM, 90.0 °C, 2 steps",24%
"(E)-8-Ethyl-1,26-dimethoxy-10,18-dimethyl-7,20-dioxo-6,7,8,11,12,13,14,15,20,21,28,31-dodecahydrobenzo[4,5]imidazo[1,2-a]benzo[4,5]imidazo[2,1-p]dipyrazolo[5,1-e:4′,3′-1][1,3,6,15,17]pentaazacyclohenicosine-3,24-dicarboxamide, bis trifluoroacetic acid salt","ring closure, yield after HPLC","[3]; 21-membered ring, HATU/TEA, DMF, 24.4 mM, 100.0 °C",1%
